Test [1] relates to NS5B chimeric replicon of clinical isolate 1a—6 in Huh7-cure cells. As to the kind of experiment: Transient replicon assay, chimeric replicon of clinical isolate 1a—6 (CI2). In kind it is cell-based, HCV genotype 1a. As to conditions: Hepatitis C virus, 48 h, read-out: EC50-T CI2.
Test [2] has as its system wild type replicon of genotype 1b (con1b) in Huh7-cure cells. Briefly: Transient replicon assay, wild type replicon of genotype 1b (Con1b). In kind it is cell-based, HCV genotype 1b. The settings on record: Hepatitis C virus, transient wild type replicon genotype 1b, 48 h, luciferase, read-out: EC50-T Con1b.
Test [3] addresses T1, HCV NS5B polymerase (NS5BΔC21) (Hepatitis C virus genotype 1b, UniProt Q9WMX2).
T1 construct: NS5B (genotype 1b consensus strain Con1) lacking 21 C-terminal residues; made in house; host or cells: E. coli Rosetta 2 (DE3)
As to the kind of experiment: RNA-dependent RNA polymerase assay (enzyme inhibition assay). The test is classed as biochemical, HCV (genotype 1b consensus strain Con1). The text has this:
The coding sequence for NS5B (genotype 1b consensus strain Con1) lacking 21 C-terminal residues was amplified from plasmid pFKI389/ns3-3′ (Genbank accession no. AJ242654), plasmid pCV-H77C (Genbank accession no. AF 011751.1) and subcloned into the pET21b plasmid as described previously (Pauwels et al. J. Virol., 2007). The NS5BΔC21 expression constructs were transformed into E. coli Rosetta 2 (DE3) (Novagen, Madison, Wis.). One hundred milliliters of LB-medium supplemented with carbenicillin (50 μg/mL) and chloramphenicol (34 μg/mL) was inoculated with one colony, grown overnight, and transferred to fresh LB-medium supplemented with 3% ethanol, carbenicillin and chloramphenicol, at a ratio of 1:200. Cells were grown to an optical density at 600 nm of 0.6, after which the expression cultures were shifted to a growth temperature of 20° C. following induction with ispopropyl-1-thio-β-D-galactopyranoside and MgCl2 at a final concentration of 0.4 mM and 10 μM, respectively. After 18 h of induction, cells were harvested by centrifugation and resuspended in 20 mM Tris-HCl, pH 7.5, 300 mM NaCl, 10% glycerol, 0.1% NP40, 4 mM MgCl2, 5 mM DTT supplemented with EDTA-free Complete Protease Inhibitor (Roche, Basel, Switzerland). Cell suspensions were disrupted by sonication and incubated with 10-15 mg/L of DNase I (Roche, Basel, Switzerland) for 30 min. Cell debris was removed through ultracentrifugation at 30,000×g for 1 hour and clarified cell lysate was flash frozen and stored at −80° C. prior to purification.
Clarified cell lysate was thawed and subsequently loaded onto a 5 mL pre-packed HisTrap FF column equilibrated with 25 mM HEPES, pH 7.5, 500 mM NaCl, 10% glycerol and 5 mM DTT. Proteins were eluted with 500 mM imidazole at a flow rate of 1 mL/min. Fractions containing the protein of interest were applied onto a pre-packed 26/10 HiPrep Desalting Column equilibrated with 25 mM HEPES, pH 7.5, 250 mM NaCl, 10% glycerol and 5 mM DTT. The buffer-exchanged NS5B peak was then applied onto a 6 ml Resource S column. Protein was eluted with an increasing salt gradient and fractions collected. Protein purity was assessed on Nu-PAGE pre-cast gels (Invitrogen, Carlsbad, Calif.). Purified NS5B samples were concentrated using Centri-Prep concentrators (Millipore, Billerica, Mass., USA) and protein concentrations were determined by spectrofotometry with the Nanodrop (Nanodrop Technologies, Wilmington, Del., USA).
Measurement of HCV NS5B polymerization activity was performed by evaluating the amount of radio labeled GTP incorporated by the enzyme in a newly synthesized RNA using […] RNA template/primer. The RdRp assay was carried out in 384-well plates. 2.5 nM of purified NS5B enzyme was pre-incubated for 10 min with 150 nM 5′-biotinylated oligo(rG13) primer, 15 nM poly(rC) template, in 18 mM Tris-HCl, pH 7.5, 5 mM MgCl2, 20.5 mM KCl, 17 mM NaCl and 2.5 mM of DTT. The test compounds were the added to the preformed polymerase-template complex, and incubated at room temperature for 15 min before the addition 600 nM of GTP, and 0.13 μCi of [^3H]GTP. 30 μL reaction mixture was incubated at room temperature for 2 h before stopping the reaction by adding 30 μL of streptavidin coated SPA-beads (GE Healthcare, Uppsala, Sweden) in 0.5 M EDTA. […] IC50 values represent the concentration of compound required to decrease by 50% the amount of RNA produced which is measured by the detection of incorporated radiolabeled GTP.

Test [4] deals with NS5B chimeric replicon of clinical isolate 1a_H77 in Huh7-cure cells. Briefly: Transient replicon assay, chimeric replicon of clinical isolate 1a_H77 (CI1). The test is classed as cell-based, HCV genotype 1a. As to conditions: Hepatitis C virus, 48 h, read-out: EC50-T CI1.
Test [5] deals with T2, NS5B wild-type enzyme genotype 1a (Hepatitis C virus genotype 1a, UniProt P27958).
T2 construct: The purified HIS6-tagged NS5BΔC21 polymerases were immobilized; made in house; host or cells: E. coli Rosetta 2 (DE3)
T2 sequence (P27958 2421-2990): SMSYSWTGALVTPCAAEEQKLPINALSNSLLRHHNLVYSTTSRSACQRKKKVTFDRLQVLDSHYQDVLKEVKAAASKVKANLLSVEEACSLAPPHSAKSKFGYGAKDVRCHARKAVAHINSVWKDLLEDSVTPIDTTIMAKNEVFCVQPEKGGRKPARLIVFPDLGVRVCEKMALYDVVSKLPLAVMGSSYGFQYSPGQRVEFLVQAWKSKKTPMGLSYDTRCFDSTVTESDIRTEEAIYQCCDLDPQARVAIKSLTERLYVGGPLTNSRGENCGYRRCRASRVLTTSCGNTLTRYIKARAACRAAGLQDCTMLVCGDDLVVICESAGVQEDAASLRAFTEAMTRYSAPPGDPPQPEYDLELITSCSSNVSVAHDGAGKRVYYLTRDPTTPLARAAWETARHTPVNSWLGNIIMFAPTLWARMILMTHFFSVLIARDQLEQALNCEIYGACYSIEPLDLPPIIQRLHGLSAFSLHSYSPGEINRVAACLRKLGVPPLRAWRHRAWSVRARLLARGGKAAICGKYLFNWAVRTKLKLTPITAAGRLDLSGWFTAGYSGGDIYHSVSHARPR
As to the kind of experiment: Enzyme binding assay (SPR, Biacore), genotype 1a. The arrangement: species or system HCV genotype 1a. The procedure: (§1) The compounds of formula (I) were examined for their enzymatic binding kinetics or affinity using a Surface Plasmon Resonance (SPR)-based method, i.e. Biacore. A slow dissociation of the inhibiting compound from its viral target (low koff, low Kd) is believed to potentially reduce the development of drug resistance against anti-viral drugs (Dierynck et al. 2007. Journal of Virology, vol. 81, No. 24, 13845-13851). All measurements were performed on a Biacore T100 instrument (GE Healthcare). The purified HIS6-tagged NS5BΔC21 polymerases were immobilized using non-covalent capturing to an NTA sensor chip (GE Healthcare) in immobilization buffer (20 mM MOPS pH 7.4, 500 mM NaCl, 0.005% Tween-P20, 1 mM DTT, 50 μM EDTA). Interaction studies were all performed at 25° C. Inhibitors were serially diluted in running buffer (20 mM Tris-HCl pH 7.4, 150 mM NaCl, 50 μM EDTA, 1 mM DTT, 0.005% Tween-P20) containing 5% dimethyl sulfoxide (DMSO). Single-cycle kinetics were used, in which 5 increasing concentrations of compound were injected for a period of 300 s each in 1 single cycle, and dissociation was monitored for a period of 1200 s. The sensor surface was completely regenerated in between the cycles. Data were analyzed using simultaneous nonlinear regression analysis (global fitting) adapted for single-cycle kinetics with Biacore T100 BiaEval evaluation software 2.0 (GE Healthcare). The individual rate constants kon and koff and a derived affinity constant, Kd=koff/kon, were determined by a kinetic evaluation of the sensorgrams. The kinetic models accounted for bulk and limited mass transport effects. Every analysis was performed at least in two independent experiments. The dissociation rate of a kinetic interaction can be translated into a compound residence time (dissociative half-life t1/2=ln(2)/koff) representative for the interaction time between the polymerase and its inhibitor.
(§2) The observed association rate constants (kon), dissociation rate constants (koff), derived affinity constant (Kd) and dissociative half-life (t1/2) measured for compounds of formula (I) or subgroups thereof on NS5B wild-type enzyme genotypes 1a, 1b and 4a are given in Table 2.

Test [6] addresses T3, NS5B wild-type enzyme genotype 1b (Hepatitis C virus genotype 1b, UniProt Q9WMX2).
T3 construct: NS5B (genotype 1b consensus strain Con1) lacking 21 C-terminal residues; made in house; host or cells: E. coli Rosetta 2 (DE3)
Briefly: Enzyme binding assay (SPR, Biacore), genotype 1b. The procedure:
as §1, §2

Test [7] deals with T4, NS5B wild-type enzyme genotype 4a (UniProt O39929).
T4 construct: fused on or other part: His6 tag
As to the kind of experiment: Enzyme binding assay (SPR, Biacore), genotype 4a. Details: species or system HCV genotype 4a. The protocol:
as §1, §2

For the compound `CN1CCN2CCN(CC2)C(=O)COc2ccccc2-c2c(C3CCCCC3)c3ccc(cc3n2C)C(=O)NS1(=O)=O` [Compound 22, 30-cyclohexyl-12,21-dimethyl-4-oxa-20-thia-1,12,19,21,24-pentaazapentacyclo[22.2.2.1^11,14.1^13,17.0^5,10]triaconta-5,7,9,11(30),13(29),14,16-heptaene-2,18-dione 20,20-dioxide], the EC50 in test [1] stood at 201 nM; in test [2], 164 nM; in test [4] it was 156 nM. The compound also yielded an IC50 in test [3] of 181 nM.
Turning to `COc1ccc2c(c1)OCC(=O)N(C)CCOCCN(C)S(=O)(=O)NC(=O)c1ccc3c(C4CCCCC4)c-2n(C)c3c1` [Compound 54, 25-cyclohexyl-23-methoxy-4,10,19-trimethyl-5,6,9,10-tetrahydro-2H,8H-14,18:17,20-di(metheno)-1,7,11,4,10,12,19-benzodioxathiatetraazacyclodocosine-3,13 (4H,12H,19H)-dione 11,11-dioxide], the EC50 came to 81 nM in test [1], 103 nM in test [2] and 67 nM in test [4].
For `COc1ccc2c(c1)OCC(=O)N(C)CCCCN(C)S(=O)(=O)NC(=O)c1ccc3c(C4CCCCC4)c-2n(C)c3c1` [Compound 53, 24-cyclohexyl-22-methoxy-4,9,18-trimethyl-4,5,6,7,8,9-hexahydro-13,17:16,19-di(metheno)-1,10,4,9,11,18-benzoxathiatetraazacyclohenicosine-3,12(2H,11H,18H)-dione 10,10-dioxide], the EC50 in test [1] was determined as 66 nM; in test [2], 83 nM; in test [4], 44 nM.
In the case of `CC(C)n1c2c(C3CCCCC3)c3ccc(cc31)C(=O)NS(=O)(=O)N(C)CCOCCN(C)C(=O)COc1ccccc1-2` [Compound 52, 25-cyclohexyl-4,10-dimethyl-19-(1-methylethyl)-5,6,9,10-tetrahydro-2H,8H-14,18:17,20-di(metheno)-1,7,11,4,10,12,19-benzodioxathiatetraazacyclodocosine-3,13 (4H,12H,19H)-dione 11,11-dioxide], the EC50 in test [1] came out at 7960 nM; in test [2], 7660 nM; in test [4], 7140 nM. Moreover, the IC50 in test [3] came to 1660 nM.
As for `CN1CCCCN(C)S(=O)(=O)NC(=O)c2ccc3c(C4CCCCC4)c(n(C4CCCC4)c3c2)-c2ccccc2OCC1=O` [Compound 40, 24-cyclohexyl-18-cyclopentyl-4,9-dimethyl-4,5,6,7,8,9-hexahydro-13,17:16,19-di(metheno)-1,10,4,9,11,18-benzoxathiatetraazacyclohenicosine-3,12(2H,11H,18H)-dione 10,10-dioxide], the EC50 in test [1] turned out to be 5270 nM; in test [2] it was 7340 nM; in test [4], 5150 nM. In test [3], this compound showed an IC50 of 1090 nM.
Consider `CN1CCCCCNC(=O)COc2ccccc2-c2c(C3CCCCC3)c3ccc(cc3n2C)C(=O)NS1(=O)=O` [Compound 21, 25-cyclohexyl-10,19-dimethyl-5,6,7,8,9,10-hexahydro-2H-14,18:17,20-di(metheno)-1,11,4,10,12,19-benzoxathiatetraazacyclodocosine-3,13(4H,12H,19H)-dione 11,11-dioxide], for which the EC50 in test [1] was determined as 95 nM; in test [2], 123 nM; in test [4], 55 nM. Half-maximal inhibition in test [3] (IC50) required 148 nM.
Turning to `CN1CCCCCNC(=O)COc2ccc(F)cc2-c2c(C3CCCCC3)c3ccc(cc3n2C)C(=O)NS1(=O)=O` [Compound 51, 25-cyclohexyl-22-fluoro-10,19-dimethyl-5,6,7,8,9,10-hexahydro-2H-14,18:17,20-di(metheno)-1,11,4,10,12,19-benzoxathiatetraazacyclodocosine-3,13(4H,12H,19H)-dione 11,11-dioxide], the figures for the Kd in test [5], in test [6] and in test [7] (Kd=koff/kon) were 39 nM, 16 nM and 11 nM, respectively. In addition, the koff in test [5] worked out at 0.0035 s⁻¹; in test [6] (genotype 1b, SPR, 25° C.), 0.00031 s⁻¹; in test [7] (SPR, 25° C.) it was 0.0022 s⁻¹. Moreover, the kon is 9.5E+04 1/MS in test [5] (genotype 1a, SPR, 25° C.); 2.0E+04 1/MS in test [6] (genotype 1b, SPR, 25° C.); 1.9E+05 1/MS in test [7] (SPR, 25° C.). Also, the “t1/2 (dissociative half-life)” value in test [5] (genotype 1a, t1/2=ln(2)/koff) turned out to be 3.3 min; in test [6] (genotype 1b, t1/2=ln(2)/koff) it was 37.38 min; in test [7] (t1/2=ln(2)/koff), 5.33 min. Further, inhibition in test [3] was half-maximal at 88 nM (IC50).
